Test results taken from patent US7662936B2, “Mass spectrometry of antibody conjugates” (priority 2004, dated 2010).
Where a SMILES comes first, the peptide text is derived from it. [ ]: non-standard residue; d: D form. The star is where a group is joined. Dolaproine = CO[C@@H]([C@@H]1CCCN1)[C@@H](C)C(=O)O; Dil = CC[C@H](C)[C@H](NC)[C@@H](CC(=O)O)OC; X1 = C[C@@H](N*)[C@@H](O)c1ccccc1; NMeV = CN[C@H](C(=O)O)C(C)C

Tests used:
[1] = cited from earlier work
[2] = more cytotoxic; cited from earlier work
[3] = Rat study of trastuzumab-MC-val-cit-PAB-MMAE (Example 8): clinical observations, mortality, body weight; format: in vivo, Sprague-Dawley rats
Method: Groups 2 and 3 were administered a preparation of Tr-MC-val-cit-PAB-MMAE with average drug loading of 8.7 MMAE/Tr. Groups 4, 5, and 6 were administered a preparation of Tr-MC-val-cit-PAB-MMAE with average drug loading of 5.3 MMAE/Tr. […] Group 6 received the highest dose of 4209 μg MMAE/m^2.
The dose solutions were administered by a single intravenous bolus tail-vein injection on Study Day 1 at a dose volume of 10 ml/kg. […] Body weights of the animals were measured pre-dose on Study Day 1 and daily thereafter. Whole blood was collected into EDTA containing tubes for hematology parameters and complete blood counts. Whole blood was collected into serum separator tubes for clinical chemistry parameters. Blood samples were collected pre-dose on […], and on Study Days 3 and 5. Whole blood was also collected into lithium heparin containing tubes and the plasma was frozen at −70° C. for later analysis.

Row | Compound | adverse effects leading to discontinuation of clinical trials [1] | cytotoxicity relative to conventional cancer chemotherapeutic agents like methotrexate, daunorubicin, and vincristine [2] | appearance of animals throughout the 5 days on study ([3]; Group 7, free MMAE 0.206 mg/kg, single iv bolus, 6 female rats) | changes in body weight ([3]; groups 2, 4 and 7, comparable amounts of MMAE (840 ug/m^2))
1 | COc1cc2cc(c1Cl)N(C)C(=O)C[C@H](OC(=O)[C@H](C)N(C)C(C)=O)[C@]1(C)O[C@H]1[C@H](C)[C@@H]1C[C@@](O)(NC(=O)O1)[C@H](OC)/C=C/C=C(\C)C2 [Maytansine] | serious adverse effects on the central nervous system and gastrointestinal system | 100-to 1000 fold | – | –
2 | CC[C@H](C)[C@@H]([C@@H](CC(=O)N1CCC[C@H]1[C@H](OC)[C@@H](C)C(=O)N[C@H](C)[C@@H](O)c1ccccc1)OC)N(C)C(=O)[C@@H](NC(=O)[C@@H](NC)C(C)C)C(C)C [MMAE] (H-[NMeV]V[Dil][Dolaproine]-X1) | – | – | appeared healthy | comparable changes in body weight
